Experimental data published in US20260257980A1, “NOVEL DIMETHYLCHALCONE DERIVATIVE” (CHUNG-ANG UNIVERSITY INDUSTRY-ACADEMIC COOPERATION …, priority 2022, published 2026).

These molecules were tested on C2C12 myoblasts differentiated into myotubes (assay: Fatty acid oxidation rate (14CO2 from [1-14C] palmitate) in differentiated C2C12 myotubes). Conditions: 10 μM DMC derivative, 24 hours, lysate with 0.2 mmol/L [1-14C] palmitate, 3 hours, positive control AICAR, control compounds CON1-CON6, FIG. 1.
Type: cell-based
Method: To measure the fatty acid oxidation rate, C2C12 myoblasts were primarily cultured in DMEM supplemented with 10% fetal bovine serum, and then cultured for 5 days in DMEM supplemented with 2% horse serum in order to differentiate into myotubes. Then, the differentiated myotubes were treated with 10 μM of the DMC derivative, and cultured for 24 hours, and the cells were then harvested. Next, the harvested cells were lysed using a mitochondrial isolation buffer (250 mmol/L sucrose, 10 mmol/L Tris-HCl, and 1 mmol/L EDTA), treated with 0.2 mmol/L [1-^14C] palmitate, and then allowed to react for 3 hours. Next, the amount of ^14CO2 thus generated was measured, and the measured amount of ^14CO2 was corrected for the total amount of proteins to compare the fatty acid oxidation rate. In this case, AICAR was used as a positive control, and the compounds shown in Table 2 below were used as control compounds.

**Q.** Which “fatty acid oxidation rate (amount of 14CO2 generated, corrected for total protein)” value (shortened to “fatty acid oxidation rate”) does the source give for COc1c(C)c(O)c(C)c(O)c1C(=O)/C=C/c1cccc(F)c1 [Compound 8, 1-(2′,4′-dihydroxy-6′-methoxy-3′,5′-dimethylphenyl)-3-(3-fluorophenyl)-2-propen-1-one] here?
**A.** higher fatty acid oxidation effect than the derivatives (CON3, CON4)

**Q.** Which “fatty acid oxidation rate” value does the source give for COCOc1c(C)c(O)c(C(=O)/C=C/c2cccc(F)c2)c(OC)c1C [Compound 1, 1-(2′-hydroxy-4′-(methoxymethoxy)-6′-methoxy-3′,5′-dimethylphenyl)-3-(3-fluorophenyl)-2-propen-1-one] here?
**A.** higher fatty acid oxidation effect than the derivatives (CON1, CON2)

**Q.** For COc1c(C)c(OC)c(C(=O)/C=C/c2cccc(F)c2)c(OC)c1C [Compound 15, 1-(2′,4′,6′-trimethoxy-3′,5′-dimethylphenyl)-3-(3-fluorophenyl)-2-propen-1-one], which “fatty acid oxidation rate” value is on record?
**A.** higher fatty acid oxidation effect than the derivatives (CON5, CON6)
